Consider 22 molecules from patent US20230242496A1, “SOX11 INHIBITORS FOR TREATING MANTLE CELL LYMPHOMA” (Icahn School of Medicine At Mount Sinai, priority 2020, published 2023).

Molecules are shown by their SMILES.

One test addresses T1, (His)6-SOX11-DBD protein (Homo sapiens, UniProt P35716).
T1 construct: Recombinant (His)6-SOX11-DBD protein was immobilized
T1 sequence (P35716 49-117 limits assumed): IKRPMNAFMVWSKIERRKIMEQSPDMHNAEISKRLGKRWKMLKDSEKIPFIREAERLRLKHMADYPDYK
Description: Surface Plasmon Resonance (SPR) assay. The format is binding. The following applies: immobilized recombinant (His)6-SOX11-DBD, 25° C., compounds 5-40 μM, mean of three experiments.

The subject of another test is Jeko-1 (SOX11+). Put plainly: Cell viability assay (CellTiter-Blue resazurin reduction). The format is cell-based. The following applies: Homo sapiens, JeKo-1, 72 h, JeKo-1 cells; for IC50: 0-40 μM; for viability at 20 µM: 20 μM compound, normalized to 0.2% DMSO. The method, boiled down: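 Cells were exposed to compound for 72 h, then resazurin reduction (CellTiter-Blue, 2 h) was read by fluorescence and converted to viable cell number via a standard curve. Viability was normalised to 0.2% DMSO-treated cells. IC50 came from a sigmoidal dose-response fit, three separate experiments.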
On the technique in general: The colour change of resazurin is a common sign of viable cells or microbes.

For `CC1Sc2ccc(C(=O)Nc3ccc(S(=O)(=O)Nc4cc[nH]c(=O)c4)cc3)cc2NC1=O` (stereo not shown), the Kd (commonly the equilibrium constant for the complex coming apart) on (His)6-SOX11-DBD protein is 24.8 µM. Besides, in the test with Jeko-1 (SOX11+), 18 µM corresponded to half-maximal inhibition (IC50) and the viability (usually a read-out of living cells in per cent, often relative to untreated cells) at 20 µM worked out at 34.8%.

Consider `CC1Sc2ccc(C(=O)Nc3ccc(S(=O)(=O)Nc4ccncc4)cc3)cc2NC1=O` (stereo not shown), for which the Kd at (His)6-SOX11-DBD protein was 30.9 µM. Besides, in the test with Jeko-1 (SOX11+), the IC50 (as a rule, the concentration that gives 50% inhibition) is > 20 µM and the viability at 20 µM was 103%.

Turning to `Cc1ccc(NC(=O)c2ccc3c(c2)NC(=O)CS3)cc1S(=O)(=O)Nc1cccc(Cl)c1`, the Kd on (His)6-SOX11-DBD protein was determined as 3.37 µM. In the test on Jeko-1 (SOX11+), half-maximal inhibition (IC50) required 10 µM and the viability at 20 µM came out at 26.3%.

On to `CC1Sc2ccc(C(=O)Nc3cccc(S(=O)(=O)N4CCN(C(=O)OC(C)(C)C)CC4)c3)cc2NC1=O` (stereo not shown), for which, on (His)6-SOX11-DBD protein, the equilibrium dissociation constant (Kd) is 1.76 µM. Further, in the test with Jeko-1 (SOX11+), inhibition was half-maximal at 18 µM (IC50) and the viability at 20 µM is 36.4%.

Regarding `O=C(CCc1c[nH]cn1)Nc1cccc(C(=O)Nc2ccc(S(=O)(=O)Nc3ccccc3)cc2)c1`, on (His)6-SOX11-DBD protein, the equilibrium dissociation constant (Kd) turned out to be 6.46 µM. In addition, in the test on Jeko-1 (SOX11+), the IC50 was > 20 µM and the viability at 20 µM came out at 90.7%.

On to `c1ccc(COc2cccc(CNc3ccc4cnccc4c3)c2)cc1`, for which the dissociation constant Kd on (His)6-SOX11-DBD protein was 47.8 µM. Besides, the viability at 20 µM in the test on Jeko-1 (SOX11+) is 1.12%.

As for `O=C(Nc1cccc(CNc2ccccc2)c1)c1ccc2c(c1)CCCS2`, the dissociation constant Kd at (His)6-SOX11-DBD protein is 7.34 µM. The viability at 20 µM with Jeko-1 (SOX11+) came out at 85.3%.

`CC1Sc2ccc(C(=O)Nc3ccc(S(=O)(=O)Nc4cccc(C(F)(F)F)c4)cc3)cc2NC1=O` (stereo not shown): at (His)6-SOX11-DBD protein, the Kd is 5.78 µM. In the test with Jeko-1 (SOX11+), half-maximal inhibition (IC50) was put at 21 µM and the viability at 20 µM was 9.74%.

Consider `Cc1ccc(NS(=O)(=O)c2cccc(NC(=O)c3ccc4c(c3)NC(=O)C(C)S4)c2)cc1` (stereo not shown), for which the Kd on (His)6-SOX11-DBD protein is 6.08 µM. Moreover, in the test on Jeko-1 (SOX11+), the IC50 worked out at 7 µM and the viability at 20 µM was found to be 2.16%.

In the case of `O=C(Nc1ccc(S(=O)(=O)Nc2ccccc2)cc1)c1ccc2nc[nH]c2c1`, at (His)6-SOX11-DBD protein, the equilibrium dissociation constant (Kd) came out at 230 µM. For the same molecule, in the test on Jeko-1 (SOX11+), the IC50 is > 20 µM and the viability at 20 µM came out at 93.6%.

On to `O=C(Nc1ccc(S(=O)(=O)Nc2ccccc2)cc1)c1ccc2ccncc2c1`, for which the equilibrium dissociation constant (Kd) on (His)6-SOX11-DBD protein is 37.9 µM. Further, in the test on Jeko-1 (SOX11+), the concentration for half-maximal inhibition (IC50) turned out to be 5 µM and the viability at 20 µM is 24.8%.

As for `CC1Sc2ccc(C(=O)Nc3ccc(CN4CCCC4)cc3)cc2NC1=O` (stereo not shown), at (His)6-SOX11-DBD protein, the Kd was 71.5 µM. Also, the viability at 20 µM in the test with Jeko-1 (SOX11+) came out at 104%.

On to `O=C(Nc1ccc(S(=O)(=O)N2CCCCC2)c(Cl)c1)c1ccc2c(c1)CCCS2`, for which, on (His)6-SOX11-DBD protein, the Kd was determined as 17.6 µM. For the same molecule, the viability at 20 µM in the test on Jeko-1 (SOX11+) is 35.1%.

As for `CC1Sc2ccc(C(=O)Nc3ccc(S(=O)(=O)N4CCCC4)c(Cl)c3)cc2N(C)C1=O` (stereo not shown), the Kd on (His)6-SOX11-DBD protein was found to be 20.4 µM. The viability at 20 µM with Jeko-1 (SOX11+) is 8.44%.

Consider `CC1Sc2ccc(C(=O)Nc3ccc(S(=O)(=O)NC4CCCCC4)cc3)cc2NC1=O` (stereo not shown), for which the Kd at (His)6-SOX11-DBD protein turned out to be 19 µM. In the test with Jeko-1 (SOX11+), the IC50 was found to be 8 µM and the viability at 20 µM stood at 30.4%.

As to `CN1C(=O)CSc2ccc(C(=O)Nc3ccc(CN4CCCCCC4)cc3)cc21`, the equilibrium dissociation constant (Kd) at (His)6-SOX11-DBD protein came out at 6.93 µM. Also, in the test with Jeko-1 (SOX11+), the 50% inhibitory concentration (IC50) was > 20 µM and the viability at 20 µM stood at 102%.

Consider `CC1Sc2ccc(C(=O)Nc3ccc(S(=O)(=O)Nc4ccccc4C(F)(F)F)cc3)cc2NC1=O` (stereo not shown), for which, at (His)6-SOX11-DBD protein, the dissociation constant (Kd) stood at 1.1 µM. Further, in the test with Jeko-1 (SOX11+), the IC50 was determined as 10 µM and the viability at 20 µM worked out at 8.61%.

Turning to `CC1Sc2ccc(C(=O)Nc3ccc(S(=O)(=O)Nc4cccc(F)c4)cc3)cc2NC1=O` (stereo not shown), the Kd at (His)6-SOX11-DBD protein came out at 1.26 µM. Moreover, in the test on Jeko-1 (SOX11+), the 50% inhibitory concentration (IC50) was < 20 µM and the viability at 20 µM was 28.2%.

As to `O=C(Nc1ccc(S(=O)(=O)Nc2ccccc2)cc1)c1ccc2ccccc2c1`, on (His)6-SOX11-DBD protein, the equilibrium dissociation constant (Kd) stood at 3.42 µM. Further, in the test with Jeko-1 (SOX11+), the half-maximal inhibitory concentration (IC50) was > 20 µM and the viability at 20 µM stood at 96.3%.

Turning to `CC1Sc2ccc(C(=O)Nc3cccc(S(=O)(=O)N4CCCCC4)c3)cc2NC1=O` (stereo not shown), the equilibrium dissociation constant (Kd) on (His)6-SOX11-DBD protein was 41.5 µM. In the test on Jeko-1 (SOX11+), the half-inhibitory concentration (IC50) worked out at 10 µM and the viability at 20 µM amounted to 0.6%.

Regarding `CC1Sc2ccc(C(=O)Nc3ccc(S(=O)(=O)Nc4ccc(F)cc4)cc3)cc2NC1=O` (stereo not shown), the Kd at (His)6-SOX11-DBD protein amounted to 15.9 µM. In the test with Jeko-1 (SOX11+), the half-inhibitory concentration (IC50) was > 20 µM and the viability at 20 µM was 80.1%.

`CC(C)C1Sc2ccc(C(=O)Nc3ccc(S(=O)(=O)Nc4ccccc4)cc3)cc2NC1=O` (stereo not shown): at (His)6-SOX11-DBD protein, the Kd is 1.18 µM. In addition, in the test on Jeko-1 (SOX11+), it took 2.5 µM to reach half-maximal inhibition (IC50) and the viability at 20 µM was 1.01%.
